Experiments:
Assay in all cases: KinaseProfiler kinase assay
Assay type in all cases: biochemical
PAR-1Bα(h) = PAR-1Bα(h) (Homo sapiens, UniProt Q7KZI7)
In short: (§1)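 Compounds were serially diluted from DMSO into 20 mM MOPS buffer with EDTA, Brij-35, glycerol, β-mercaptoethanol and 1 mg/mL BSA. Reactions started with MgATP/[γ-33P]ATP, ran 40 min at room temperature, and phosphorylation was measured by scintillation counting after filtermat capture.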

ROCK-II(h) = ROCK-II(h) (Homo sapiens, UniProt O75116)
In short: as §1

MAPKAP-K3(h) = MAPKAP-K3(h) (Homo sapiens, UniProt Q16644)
In short: as §1

PKCη(h) = PKCη(h) (Homo sapiens, UniProt P24723)
In short: as §1

TSSK2(h) = TSSK2(h) (Homo sapiens, UniProt Q96PF2)
In short: as §1

SRPK1(h) = SRPK1(h) (Homo sapiens, UniProt Q96SB4)
In short: as §1

Rsk2(h) = Rsk2(h) (Homo sapiens, UniProt P51812)
In short: as §1

CHK2(h) = CHK2(h) (Homo sapiens, UniProt O96017)
In short: as §1

MSK2(h) = MSK2(h) (Homo sapiens, UniProt O75676)
In short: as §1

[1] = target: PI3 Kinase (p110α/p65α)(m) (Mus musculus, UniProt P42337)
In short: as §1

TGFBR1(h) = TGFBR1(h) (Homo sapiens, UniProt P36897)
In short: as §1

MKK4(m) = MKK4(m) (Mus musculus, UniProt P47809)
In short: as §1

Fer(h) = Fer(h) (Homo sapiens, UniProt P16591)
In short: as §1

CaMKIIβ(h) = CaMKIIβ(h) (Homo sapiens, UniProt Q13554)
In short: as §1

Axl(h) = Axl(h) (Homo sapiens, UniProt P30530)
In short: as §1

Snk(h) = Snk(h) (Homo sapiens, UniProt Q9NYY3)
In short: as §1

Arg(h) = Arg(h) (Homo sapiens, UniProt P42684)
In short: as §1

SGK2(h) = SGK2(h) (Homo sapiens, UniProt Q9HBY8)
In short: as §1

Haspin(h) = Haspin(h) (Homo sapiens, UniProt Q8TF76)
In short: as §1

CLK3(h) = CLK3(h) (Homo sapiens, UniProt P49761)
In short: as §1

[2] = target: PI3 Kinase (p110α(E542K)/p85α)(h) (Homo sapiens, UniProt P42336, E542K)
In short: as §1

CK2(h) = CK2(h) (Homo sapiens, UniProt P68400)
In short: as §1

TSSK1(h) = TSSK1(h) (Homo sapiens, UniProt Q9BXA7)
In short: as §1

TAO1(h) = TAO1(h) (Homo sapiens, UniProt Q7L7X3)
In short: as §1

EphA3(h) = EphA3(h) (Homo sapiens, UniProt P29320)
In short: as §1

Src(T341M)(h) = Src(T341M)(h) (Homo sapiens, UniProt P12931, T341M)
In short: as §1

CK1γ2(h) = CK1γ2(h) (Homo sapiens, UniProt P78368)
In short: as §1

SRPK2(h) = SRPK2(h) (Homo sapiens, UniProt P78362)
In short: as §1

MLCK(h) = MLCK(h) (Homo sapiens, UniProt Q9H1R3)
In short: as §1

HIPK1(h) = HIPK1(h) (Homo sapiens, UniProt Q86Z02)
In short: as §1

MLK1(h) = MLK1(h) (Homo sapiens, UniProt P80192)
In short: as §1

MARK1(h) = MARK1(h) (Homo sapiens, UniProt Q9P0L2)
In short: as §1

Sequence of PKCη(h) (P24723 whole entry): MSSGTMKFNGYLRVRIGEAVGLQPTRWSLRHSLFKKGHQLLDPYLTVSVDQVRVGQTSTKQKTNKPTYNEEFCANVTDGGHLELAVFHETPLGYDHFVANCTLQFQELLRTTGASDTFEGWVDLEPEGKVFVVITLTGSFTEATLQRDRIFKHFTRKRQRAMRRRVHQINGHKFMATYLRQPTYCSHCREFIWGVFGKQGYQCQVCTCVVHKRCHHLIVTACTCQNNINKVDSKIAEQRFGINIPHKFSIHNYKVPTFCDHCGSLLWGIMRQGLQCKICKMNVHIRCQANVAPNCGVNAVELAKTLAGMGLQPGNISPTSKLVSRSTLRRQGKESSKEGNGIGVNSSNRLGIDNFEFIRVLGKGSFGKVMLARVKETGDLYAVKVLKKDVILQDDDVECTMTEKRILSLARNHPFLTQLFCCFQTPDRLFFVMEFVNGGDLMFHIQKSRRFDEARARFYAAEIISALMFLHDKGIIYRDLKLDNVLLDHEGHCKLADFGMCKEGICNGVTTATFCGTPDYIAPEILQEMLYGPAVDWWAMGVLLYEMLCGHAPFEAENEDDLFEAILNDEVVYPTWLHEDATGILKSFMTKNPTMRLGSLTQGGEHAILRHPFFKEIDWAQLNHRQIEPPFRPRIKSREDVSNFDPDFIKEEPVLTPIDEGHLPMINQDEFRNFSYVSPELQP
Sequence of MSK2(h) (O75676 whole entry): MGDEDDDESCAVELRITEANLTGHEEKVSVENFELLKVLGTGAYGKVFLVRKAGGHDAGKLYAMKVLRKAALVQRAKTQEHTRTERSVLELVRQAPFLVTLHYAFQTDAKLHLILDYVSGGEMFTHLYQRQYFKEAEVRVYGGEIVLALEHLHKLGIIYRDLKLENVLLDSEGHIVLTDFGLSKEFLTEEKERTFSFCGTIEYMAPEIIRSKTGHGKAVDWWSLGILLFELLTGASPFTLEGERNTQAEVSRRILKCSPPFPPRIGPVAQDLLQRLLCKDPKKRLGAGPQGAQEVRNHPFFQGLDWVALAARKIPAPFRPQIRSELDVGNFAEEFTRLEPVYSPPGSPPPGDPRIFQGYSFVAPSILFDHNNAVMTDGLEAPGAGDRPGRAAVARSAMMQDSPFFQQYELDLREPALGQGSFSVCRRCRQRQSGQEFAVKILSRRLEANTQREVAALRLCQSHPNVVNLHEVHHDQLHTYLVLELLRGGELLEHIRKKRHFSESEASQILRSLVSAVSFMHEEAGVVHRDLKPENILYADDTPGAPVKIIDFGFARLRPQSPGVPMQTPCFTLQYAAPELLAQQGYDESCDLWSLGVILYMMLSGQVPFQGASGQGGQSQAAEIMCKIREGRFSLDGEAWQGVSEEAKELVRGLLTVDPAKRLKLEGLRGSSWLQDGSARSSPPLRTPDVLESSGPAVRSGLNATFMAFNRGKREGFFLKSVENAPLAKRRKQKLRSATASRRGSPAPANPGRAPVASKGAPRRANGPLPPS
Sequence of CHK2(h) (O96017 whole entry): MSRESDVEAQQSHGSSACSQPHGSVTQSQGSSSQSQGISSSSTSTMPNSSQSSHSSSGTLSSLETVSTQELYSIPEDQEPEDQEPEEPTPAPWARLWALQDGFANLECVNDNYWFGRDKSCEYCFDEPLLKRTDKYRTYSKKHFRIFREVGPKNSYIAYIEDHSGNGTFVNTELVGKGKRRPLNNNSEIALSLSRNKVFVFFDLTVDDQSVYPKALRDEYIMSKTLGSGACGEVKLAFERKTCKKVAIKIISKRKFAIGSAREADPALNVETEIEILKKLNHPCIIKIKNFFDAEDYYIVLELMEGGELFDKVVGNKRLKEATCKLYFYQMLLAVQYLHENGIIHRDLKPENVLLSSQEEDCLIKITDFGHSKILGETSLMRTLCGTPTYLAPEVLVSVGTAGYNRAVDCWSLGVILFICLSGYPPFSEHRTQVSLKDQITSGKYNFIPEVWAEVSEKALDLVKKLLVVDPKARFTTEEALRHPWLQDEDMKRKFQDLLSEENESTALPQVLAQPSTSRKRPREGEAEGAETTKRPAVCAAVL
Sequence of Axl(h) (P30530 26-894): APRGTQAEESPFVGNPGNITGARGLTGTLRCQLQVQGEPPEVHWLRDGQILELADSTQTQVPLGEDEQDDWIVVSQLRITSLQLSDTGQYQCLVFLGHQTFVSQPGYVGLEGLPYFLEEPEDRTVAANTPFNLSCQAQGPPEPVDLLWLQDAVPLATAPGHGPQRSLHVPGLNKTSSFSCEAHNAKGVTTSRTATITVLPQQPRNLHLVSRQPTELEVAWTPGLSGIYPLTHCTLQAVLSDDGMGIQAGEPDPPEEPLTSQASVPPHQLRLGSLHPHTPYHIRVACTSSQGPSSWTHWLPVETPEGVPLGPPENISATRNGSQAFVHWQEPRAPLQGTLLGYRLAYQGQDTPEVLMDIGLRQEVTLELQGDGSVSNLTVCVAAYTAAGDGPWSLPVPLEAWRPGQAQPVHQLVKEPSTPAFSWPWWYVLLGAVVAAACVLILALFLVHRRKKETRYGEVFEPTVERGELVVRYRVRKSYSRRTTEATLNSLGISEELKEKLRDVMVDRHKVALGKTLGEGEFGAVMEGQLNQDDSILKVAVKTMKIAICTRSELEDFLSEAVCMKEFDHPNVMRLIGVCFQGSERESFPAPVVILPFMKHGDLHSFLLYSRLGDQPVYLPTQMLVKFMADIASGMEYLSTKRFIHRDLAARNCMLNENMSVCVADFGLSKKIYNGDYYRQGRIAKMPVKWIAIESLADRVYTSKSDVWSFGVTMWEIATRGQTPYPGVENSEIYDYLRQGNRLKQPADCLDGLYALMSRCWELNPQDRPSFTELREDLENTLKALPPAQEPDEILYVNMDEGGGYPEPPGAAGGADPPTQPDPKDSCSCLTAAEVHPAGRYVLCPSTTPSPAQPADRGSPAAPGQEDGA
Sequence of CLK3(h) (P49761 whole entry): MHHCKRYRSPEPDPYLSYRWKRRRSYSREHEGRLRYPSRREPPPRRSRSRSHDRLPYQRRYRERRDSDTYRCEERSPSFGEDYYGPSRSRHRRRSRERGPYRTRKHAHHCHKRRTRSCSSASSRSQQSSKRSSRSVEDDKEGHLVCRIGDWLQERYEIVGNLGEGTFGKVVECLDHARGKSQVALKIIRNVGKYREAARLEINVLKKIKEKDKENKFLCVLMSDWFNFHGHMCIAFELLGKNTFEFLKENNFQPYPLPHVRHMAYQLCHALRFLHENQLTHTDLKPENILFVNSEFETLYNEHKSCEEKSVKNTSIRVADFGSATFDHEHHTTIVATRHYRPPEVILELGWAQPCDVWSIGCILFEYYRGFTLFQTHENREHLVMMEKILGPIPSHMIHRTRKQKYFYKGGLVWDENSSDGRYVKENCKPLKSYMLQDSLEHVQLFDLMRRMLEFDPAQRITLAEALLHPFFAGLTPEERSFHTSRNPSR
Sequence of EphA3(h) (P29320 21-983): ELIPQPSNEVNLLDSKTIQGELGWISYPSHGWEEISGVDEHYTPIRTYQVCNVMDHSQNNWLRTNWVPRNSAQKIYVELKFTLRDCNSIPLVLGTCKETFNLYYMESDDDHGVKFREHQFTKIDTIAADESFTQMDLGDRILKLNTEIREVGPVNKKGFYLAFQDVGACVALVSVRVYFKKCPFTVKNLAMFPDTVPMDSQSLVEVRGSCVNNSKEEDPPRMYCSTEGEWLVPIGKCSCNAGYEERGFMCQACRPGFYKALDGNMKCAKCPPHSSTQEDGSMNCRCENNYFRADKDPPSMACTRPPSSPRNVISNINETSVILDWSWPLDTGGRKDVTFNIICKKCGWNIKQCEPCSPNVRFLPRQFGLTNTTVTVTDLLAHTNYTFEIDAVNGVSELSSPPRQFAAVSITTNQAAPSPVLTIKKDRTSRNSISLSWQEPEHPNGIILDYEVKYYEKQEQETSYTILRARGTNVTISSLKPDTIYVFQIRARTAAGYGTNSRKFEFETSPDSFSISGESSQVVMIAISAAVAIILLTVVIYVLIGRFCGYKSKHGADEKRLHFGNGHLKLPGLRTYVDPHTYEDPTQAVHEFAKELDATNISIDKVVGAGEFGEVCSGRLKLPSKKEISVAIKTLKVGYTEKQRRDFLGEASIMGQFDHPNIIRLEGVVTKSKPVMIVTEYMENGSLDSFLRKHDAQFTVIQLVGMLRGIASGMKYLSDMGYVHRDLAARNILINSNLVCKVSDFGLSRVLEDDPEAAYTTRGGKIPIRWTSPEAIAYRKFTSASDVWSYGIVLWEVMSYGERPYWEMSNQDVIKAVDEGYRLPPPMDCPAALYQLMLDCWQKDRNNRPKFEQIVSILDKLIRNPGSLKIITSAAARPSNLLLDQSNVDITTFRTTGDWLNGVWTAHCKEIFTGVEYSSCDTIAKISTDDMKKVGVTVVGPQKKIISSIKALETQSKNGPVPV
Sequence of Snk(h) (Q9NYY3 whole entry): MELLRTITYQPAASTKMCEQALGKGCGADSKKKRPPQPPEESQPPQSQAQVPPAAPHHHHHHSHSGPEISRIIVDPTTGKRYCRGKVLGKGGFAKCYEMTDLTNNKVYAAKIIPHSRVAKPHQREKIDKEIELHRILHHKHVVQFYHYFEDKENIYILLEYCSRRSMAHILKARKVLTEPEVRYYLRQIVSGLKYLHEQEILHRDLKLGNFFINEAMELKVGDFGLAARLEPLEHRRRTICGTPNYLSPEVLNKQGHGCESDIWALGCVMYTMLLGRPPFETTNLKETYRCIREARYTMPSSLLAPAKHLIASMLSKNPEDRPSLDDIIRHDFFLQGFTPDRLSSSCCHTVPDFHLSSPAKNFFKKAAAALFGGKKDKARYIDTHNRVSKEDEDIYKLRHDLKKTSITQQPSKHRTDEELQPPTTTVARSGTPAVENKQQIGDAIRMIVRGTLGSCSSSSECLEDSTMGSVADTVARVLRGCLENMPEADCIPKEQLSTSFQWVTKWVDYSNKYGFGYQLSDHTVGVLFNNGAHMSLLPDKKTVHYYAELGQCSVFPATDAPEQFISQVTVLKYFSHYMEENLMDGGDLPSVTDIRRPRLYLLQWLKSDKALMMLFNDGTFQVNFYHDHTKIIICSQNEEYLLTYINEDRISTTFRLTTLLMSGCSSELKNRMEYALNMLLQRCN

SMILES | inhibition at 0.1 µM (PAR-1Bα(h)) | inhibition at 0.1 µM (ROCK-II(h)) | inhibition at 0.1 µM (MAPKAP-K3(h)) | inhibition at 0.1 µM (PKCη(h)) | inhibition at 0.1 µM (TSSK2(h)) | inhibition at 0.1 µM (SRPK1(h)) | inhibition at 0.1 µM (Rsk2(h)) | inhibition at 0.1 µM (CHK2(h)) | inhibition at 0.1 µM (MSK2(h)) | inhibition at 0.1 µM [1] | inhibition at 0.1 µM (TGFBR1(h)) | inhibition at 0.1 µM (MKK4(m)) | inhibition at 0.1 µM (Fer(h)) | inhibition at 0.1 µM (CaMKIIβ(h)) | inhibition at 0.1 µM (Axl(h)) | inhibition at 0.1 µM (Snk(h)) | inhibition at 0.1 µM (Arg(h)) | inhibition at 0.1 µM (SGK2(h)) | inhibition at 0.1 µM (Haspin(h)) | inhibition at 0.1 µM (CLK3(h)) | further results
Cc1cc2c(F)c(Oc3nc(Nc4cc(C5CC5)[nH]n4)cc(N4CCN(C)CC4)n3)ccc2[nH]1 [Compound 10] | 75% | 11% | 4% | -16% | 5% | -11% | 37% | 11% | -7% | -1% | 66% | -2% | 38% | -5% | 70% | 9% | 104% | -41% | 0% | 16% | inhibition at 0.1 µM [2]: -1%; inhibition at 0.1 µM (CK2(h)): 8%; inhibition at 0.1 µM (TSSK1(h)): 4%; inhibition at 0.1 µM (TAO1(h)): 24%; inhibition at 0.1 µM (EphA3(h)): 47%; inhibition at 0.1 µM (Src(T341M)(h)): 102%; inhibition at 0.1 µM (CK1γ2(h)): -20%; inhibition at 0.1 µM (SRPK2(h)): 6%; inhibition at 0.1 µM (MLCK(h)): 0%; inhibition at 0.1 µM (HIPK1(h)): -6%; inhibition at 0.1 µM (MLK1(h)): 84%; inhibition at 0.1 µM (MARK1(h)): 67%
Cc1cc2c(F)c(Oc3nc(Nc4cc(C5CC5)[nH]n4)cc(N4CCNCC4)n3)ccc2[nH]1 [Compound 11, N-(5-cyclopropyl-1H-pyrazol-3-yl)-2-((4-fluoro-2-methyl-1H-indol-5-yl)oxy)-6-(piperazin-1-yl)pyrimidin-4-amine] | 66% | 3% | -15% | -7% | 2% | -14% | 7% | 4% | -5% | 2% | 47% | -28% | 45% | 8% | 62% | 5% | 102% | -12% | -11% | -14% | inhibition at 0.1 µM [2]: 0%; inhibition at 0.1 µM (CK2(h)): 5%; inhibition at 0.1 µM (TSSK1(h)): 3%; inhibition at 0.1 µM (TAO1(h)): 26%; inhibition at 0.1 µM (EphA3(h)): 56%; inhibition at 0.1 µM (Src(T341M)(h)): 101%; inhibition at 0.1 µM (CK1γ2(h)): -16%; inhibition at 0.1 µM (SRPK2(h)): 0%; inhibition at 0.1 µM (MLCK(h)): 0%; inhibition at 0.1 µM (HIPK1(h)): -12%; inhibition at 0.1 µM (MLK1(h)): 86%; inhibition at 0.1 µM (MARK1(h)): 64%

Source: patent publication US10245261B2, “Substituted indol-5-ol derivatives and their therapeutic applications” (NantBioScience, Inc., priority 2013, dated 2019)
